Reference: patent US4935505A, “Novel azolo [1,3] diazepine-5-ol compounds and their uses” (priority 1988, dated 1990)
Like-named read-outs stand apart in the source and are kept apart here.

Assays:
adenosine deaminase = adenosine deaminase (Homo sapiens, UniProt P00813); assay: Inhibition of adenosine deaminase (ADA), adenosine as substrate, purified enzyme; type: biochemical
From the text: The mixture of the R and S isomers of the 4,5,6-trihydro-1-(β-D-ribofuranosyl) pyrazolo [5,4-d]

[1] = tested on: human erythrocytic adenosine deaminase; conditions: cited from earlier work
[2] = clinical trials; cited from earlier work
[3] = Inhibition of Adenosine Deaminase by Target Compounds, adenosine as substrate, purified enzyme, read-out: Ki

adenosine deaminase, sequence (P00813 whole entry): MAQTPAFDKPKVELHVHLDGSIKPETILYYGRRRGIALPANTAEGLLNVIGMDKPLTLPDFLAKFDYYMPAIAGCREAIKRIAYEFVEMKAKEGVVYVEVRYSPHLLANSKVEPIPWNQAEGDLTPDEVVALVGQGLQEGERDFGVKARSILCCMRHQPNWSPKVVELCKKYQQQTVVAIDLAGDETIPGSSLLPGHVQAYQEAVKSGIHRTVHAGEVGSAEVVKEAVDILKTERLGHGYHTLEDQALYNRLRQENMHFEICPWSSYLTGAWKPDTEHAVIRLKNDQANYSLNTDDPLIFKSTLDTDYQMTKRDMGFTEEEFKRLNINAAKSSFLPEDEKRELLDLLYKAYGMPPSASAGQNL

In the case of `OC[C@H]1O[C@@H](n2nnc3c2N=CNC[C@H]3O)[C@H](O)[C@@H]1O` [4 (R), 6,7,8-Trihydro-3-β-D-ribofuranosyl-v-triazole [4,5-d] [1,3] diazepin-8(R,S)-ol], the Ki (adenosine deaminase; Preliminary estimates based on conventional kinetic analysis, adenosine as substrate, purified enzyme, read-out: Ki) is reported as 0.002 µM, the “type of inhibition of ADA” value (adenosine deaminase; adenosine as substrate, purified enzyme, listed as Compound 4) is reported as “very tight-bindinginhibitor” and the “type of inhibition of ADA” value (adenosine deaminase; adenosine as substrate, purified enzyme, listed as compound 4) is reported as “potent tight-binding inhibitor”.

With `OC[C@H]1O[C@@H](n2ncc3c2N=CNCC3O)[C@H](O)[C@@H]1O` (mixture of isomers) [(3 + 26), 4,5,6-Tihydro-1-(β-D-ribofuranosyl)pyrazolo [5,4-d]-[1,3] diazepin-4(R,S)-ol] the Ki (adenosine deaminase; [3]) was 2 µM.

In the case of `OC[C@H]1O[C@@H](n2cnc3c2N=CNC[C@H]3O)[C@H](O)[C@@H]1O` [2, coformycin, reference compound], the Ki (adenosine deaminase) is given as 0.00012 µM and the tight binding inhibition [1] is given as “exceedingly tight binding inhibitors”.

In the case of `OC[C@H]1O[C@@H](n2cnc3c2NC=NC[C@H]3O)C[C@@H]1O` [pentostatin, 8(R)-3-(2-deoxy-β-D-erythro-pentofuranosyl)-3,6,7,8-tetrahydroimidazo[4,6-d][1,3]diazepin-8-ol], the acute renal toxicity [2] is given as “acute renal toxicity” and the tight binding inhibition [1] is given as “exceedingly tight binding inhibitors”.

`OC[C@H]1O[C@@H](n2nnc3c2N=CNC[C@@H]3O)[C@H](O)[C@@H]1O` [37 (S), 6,7,8-Trihydro-3-β-D-ribofuranosyl-v-triazole [4,5-d] [1,3] diazepin-8(R,S)-ol] showed a Ki (adenosine deaminase; [3]) of 85 µM.
